Laboratory results: the NIST ThermoML archive (doi:10.1016/j.jct.2005.03.002)
Numbers after ± are expanded uncertainties.

Experiment: xn = mol fraction of the nth substance listed
Details: 101.33 kPa, Liquid

`CCOS(=O)(=O)[O-].CCn1cc[n+](C)c1` [1-ethyl-3-methylimidazolium ethyl sulfate] + O gave a mass density (278.2 K, x2 = 0) of 1243 ± 6.1 kg/m3, a mass density (278.2 K, x2 = 0.0503) of 1242.6 ± 6.1 kg/m3 and a mass density (278.2 K, x2 = 0.0983) of 1241.6 ± 6.1 kg/m3. For the same compound, the mass density (278.2 K, x2 = 0.1495) was 1240.2 ± 6.1 kg/m3, the mass density (278.2 K, x2 = 0.1996) was 1239.2 ± 6.1 kg/m3 and the mass density (278.2 K, x2 = 0.2505) was 1238.3 ± 6.1 kg/m3. It also gave a mass density (278.2 K, x2 = 0.2999) of 1236.7 ± 6.1 kg/m3, a mass density (278.2 K, x2 = 0.3504) of 1235.6 ± 6 kg/m3 and a mass density (278.2 K, x2 = 0.3987) of 1233.4 ± 6 kg/m3. It also gave a mass density (278.2 K, x2 = 0.4505) of 1231.1 ± 6 kg/m3, a mass density (278.2 K, x2 = 0.4994) of 1228.7 ± 5.9 kg/m3 and a mass density (278.2 K, x2 = 0.5495) of 1225.8 ± 5.9 kg/m3. For the same compound, the mass density (278.2 K, x2 = 0.6) was 1222.1 ± 5.8 kg/m3, the mass density (278.2 K, x2 = 0.6504) was 1217.2 ± 5.8 kg/m3 and the mass density (278.2 K, x2 = 0.6999) was 1211.5 ± 5.7 kg/m3. For the same compound, the mass density (278.2 K, x2 = 0.7502) was 1203.2 ± 5.6 kg/m3, the mass density (278.2 K, x2 = 0.8) was 1192.4 ± 5.4 kg/m3 and the mass density (278.2 K, x2 = 0.8499) was 1176.4 ± 5.2 kg/m3. The mass density (278.2 K, x2 = 0.9) was 1149.2 ± 4.8 kg/m3, the mass density (278.2 K, x2 = 0.94) was 1107.2 ± 4.2 kg/m3 and the mass density (288.2 K, x2 = 0) was 1236.2 ± 6 kg/m3. For the same compound, the mass density (288.2 K, x2 = 0.0503) was 1235.5 ± 6 kg/m3, the mass density (288.2 K, x2 = 0.0983) was 1234.7 ± 6 kg/m3 and the mass density (288.2 K, x2 = 0.1495) was 1233.5 ± 6 kg/m3. It also gave a mass density (288.2 K, x2 = 0.1996) of 1232.7 ± 6 kg/m3, a mass density (288.2 K, x2 = 0.2505) of 1231.1 ± 6 kg/m3 and a mass density (288.2 K, x2 = 0.2999) of 1229.8 ± 6 kg/m3. It also gave a mass density (288.2 K, x2 = 0.3504) of 1228.5 ± 5.9 kg/m3, a mass density (288.2 K, x2 = 0.3987) of 1226.6 ± 5.9 kg/m3 and a mass density (288.2 K, x2 = 0.4505) of 1224.4 ± 5.9 kg/m3. For the same compound, the mass density (288.2 K, x2 = 0.4994) was 1222 ± 5.8 kg/m3, the mass density (288.2 K, x2 = 0.5495) was 1219.1 ± 5.8 kg/m3 and the mass density (288.2 K, x2 = 0.6) was 1215.3 ± 5.7 kg/m3. It also gave a mass density (288.2 K, x2 = 0.6504) of 1210.7 ± 5.7 kg/m3, a mass density (288.2 K, x2 = 0.6999) of 1204.7 ± 5.6 kg/m3 and a mass density (288.2 K, x2 = 0.7502) of 1196.8 ± 5.5 kg/m3. It also gave a mass density (288.2 K, x2 = 0.8) of 1185.7 ± 5.3 kg/m3, a mass density (288.2 K, x2 = 0.8499) of 1169.9 ± 5.1 kg/m3 and a mass density (288.2 K, x2 = 0.9) of 1142.9 ± 4.7 kg/m3. It also gave a mass density (288.2 K, x2 = 0.94) of 1101.8 ± 4.1 kg/m3, a mass density (298.2 K, x2 = 0) of 1229.6 ± 5.9 kg/m3 and a mass density (298.2 K, x2 = 0.0503) of 1229 ± 5.9 kg/m3. The mass density (298.2 K, x2 = 0.0983) was 1227.9 ± 5.9 kg/m3, the mass density (298.2 K, x2 = 0.1495) was 1226.9 ± 5.9 kg/m3 and the mass density (298.2 K, x2 = 0.1996) was 1226.2 ± 5.9 kg/m3. For the same compound, the mass density (298.2 K, x2 = 0.2505) was 1224.7 ± 5.9 kg/m3, the mass density (298.2 K, x2 = 0.2999) was 1223.1 ± 5.9 kg/m3 and the mass density (298.2 K, x2 = 0.3504) was 1221.8 ± 5.8 kg/m3. The mass density (298.2 K, x2 = 0.3987) was 1220.1 ± 5.8 kg/m3, the mass density (298.2 K, x2 = 0.4505) was 1218 ± 5.8 kg/m3 and the mass density (298.2 K, x2 = 0.4994) was 1215.4 ± 5.7 kg/m3. It also gave a mass density (298.2 K, x2 = 0.5495) of 1212.3 ± 5.7 kg/m3, a mass density (298.2 K, x2 = 0.6) of 1208.7 ± 5.6 kg/m3 and a mass density (298.2 K, x2 = 0.6504) of 1203.8 ± 5.6 kg/m3. It also gave a mass density (298.2 K, x2 = 0.6999) of 1198.3 ± 5.5 kg/m3, a mass density (298.2 K, x2 = 0.7502) of 1190 ± 5.4 kg/m3 and a mass density (298.2 K, x2 = 0.8) of 1178.9 ± 5.2 kg/m3. The mass density (298.2 K, x2 = 0.8499) was 1163.4 ± 5 kg/m3, the mass density (298.2 K, x2 = 0.9) was 1136.6 ± 4.6 kg/m3 and the mass density (298.2 K, x2 = 0.94) was 1096.4 ± 4 kg/m3. For the same compound, the mass density (308.2 K, x2 = 0) was 1223 ± 5.8 kg/m3, the mass density (308.2 K, x2 = 0.0503) was 1222.6 ± 5.8 kg/m3 and the mass density (308.2 K, x2 = 0.0983) was 1221.6 ± 5.8 kg/m3. It also gave a mass density (308.2 K, x2 = 0.1495) of 1220.5 ± 5.8 kg/m3, a mass density (308.2 K, x2 = 0.1996) of 1219.5 ± 5.8 kg/m3 and a mass density (308.2 K, x2 = 0.2505) of 1218.3 ± 5.8 kg/m3. It also gave a mass density (308.2 K, x2 = 0.2999) of 1216.6 ± 5.8 kg/m3, a mass density (308.2 K, x2 = 0.3504) of 1215.3 ± 5.7 kg/m3 and a mass density (308.2 K, x2 = 0.3987) of 1213.4 ± 5.7 kg/m3. For the same compound, the mass density (308.2 K, x2 = 0.4505) was 1211.2 ± 5.7 kg/m3, the mass density (308.2 K, x2 = 0.4994) was 1208.8 ± 5.6 kg/m3 and the mass density (308.2 K, x2 = 0.5495) was 1205.8 ± 5.6 kg/m3. The mass density (308.2 K, x2 = 0.6) was 1202 ± 5.5 kg/m3, the mass density (308.2 K, x2 = 0.6504) was 1197.4 ± 5.5 kg/m3 and the mass density (308.2 K, x2 = 0.6999) was 1191.5 ± 5.4 kg/m3. It also gave a mass density (308.2 K, x2 = 0.7502) of 1183.3 ± 5.3 kg/m3, a mass density (308.2 K, x2 = 0.8) of 1172.4 ± 5.1 kg/m3 and a mass density (308.2 K, x2 = 0.8499) of 1156.8 ± 4.9 kg/m3. For the same compound, the mass density (308.2 K, x2 = 0.9) was 1130.3 ± 4.5 kg/m3, the mass density (308.2 K, x2 = 0.94) was 1090.8 ± 4 kg/m3 and the mass density (318.2 K, x2 = 0) was 1216.2 ± 5.7 kg/m3. It also gave a mass density (318.2 K, x2 = 0.0503) of 1216.2 ± 5.7 kg/m3, a mass density (318.2 K, x2 = 0.0983) of 1215.1 ± 5.7 kg/m3 and a mass density (318.2 K, x2 = 0.1495) of 1213.9 ± 5.7 kg/m3. The mass density (318.2 K, x2 = 0.1996) was 1213 ± 5.7 kg/m3, the mass density (318.2 K, x2 = 0.2505) was 1211.7 ± 5.7 kg/m3 and the mass density (318.2 K, x2 = 0.2999) was 1210.1 ± 5.7 kg/m3. It also gave a mass density (318.2 K, x2 = 0.3504) of 1208.7 ± 5.6 kg/m3, a mass density (318.2 K, x2 = 0.3987) of 1206.8 ± 5.6 kg/m3 and a mass density (318.2 K, x2 = 0.4505) of 1204.6 ± 5.6 kg/m3. It also gave a mass density (318.2 K, x2 = 0.4994) of 1202.2 ± 5.5 kg/m3, a mass density (318.2 K, x2 = 0.5495) of 1199.4 ± 5.5 kg/m3 and a mass density (318.2 K, x2 = 0.6) of 1195.6 ± 5.4 kg/m3. For the same compound, the mass density (318.2 K, x2 = 0.6504) was 1190.8 ± 5.4 kg/m3, the mass density (318.2 K, x2 = 0.6999) was 1184.7 ± 5.3 kg/m3 and the mass density (318.2 K, x2 = 0.7502) was 1176.6 ± 5.2 kg/m3. For the same compound, the mass density (318.2 K, x2 = 0.8) was 1165.6 ± 5 kg/m3, the mass density (318.2 K, x2 = 0.8499) was 1150 ± 4.8 kg/m3 and the mass density (318.2 K, x2 = 0.9) was 1124.4 ± 4.4 kg/m3. It also gave a mass density (328.2 K, x2 = 0) of 1209.9 ± 5.7 kg/m3, a mass density (328.2 K, x2 = 0.0503) of 1209.8 ± 5.7 kg/m3 and a mass density (328.2 K, x2 = 0.0983) of 1208.6 ± 5.6 kg/m3. The mass density (328.2 K, x2 = 0.1495) was 1207.5 ± 5.6 kg/m3, the mass density (328.2 K, x2 = 0.1996) was 1206.6 ± 5.6 kg/m3 and the mass density (328.2 K, x2 = 0.2505) was 1205.3 ± 5.6 kg/m3. The mass density (328.2 K, x2 = 0.2999) was 1203.8 ± 5.6 kg/m3, the mass density (328.2 K, x2 = 0.3504) was 1202.4 ± 5.5 kg/m3 and the mass density (328.2 K, x2 = 0.3987) was 1200.3 ± 5.5 kg/m3. It also gave a mass density (328.2 K, x2 = 0.4505) of 1198.6 ± 5.5 kg/m3, a mass density (328.2 K, x2 = 0.4994) of 1196.2 ± 5.5 kg/m3 and a mass density (328.2 K, x2 = 0.5495) of 1193 ± 5.4 kg/m3. It also gave a mass density (328.2 K, x2 = 0.6) of 1189.2 ± 5.3 kg/m3, a mass density (328.2 K, x2 = 0.6504) of 1184.4 ± 5.3 kg/m3 and a mass density (328.2 K, x2 = 0.6999) of 1178.2 ± 5.2 kg/m3. The mass density (328.2 K, x2 = 0.7502) was 1170 ± 5.1 kg/m3, the mass density (328.2 K, x2 = 0.8) was 1159.1 ± 4.9 kg/m3 and the mass density (328.2 K, x2 = 0.8499) was 1143.9 ± 4.7 kg/m3. It also gave a mass density (328.2 K, x2 = 0.9) of 1117.8 ± 4.3 kg/m3, a mass density (338.2 K, x2 = 0) of 1203.7 ± 5.6 kg/m3 and a mass density (338.2 K, x2 = 0.0503) of 1203.6 ± 5.6 kg/m3. It also gave a mass density (338.2 K, x2 = 0.0983) of 1202.5 ± 5.5 kg/m3, a mass density (338.2 K, x2 = 0.1495) of 1201.2 ± 5.5 kg/m3 and a mass density (338.2 K, x2 = 0.1996) of 1200.1 ± 5.5 kg/m3. For the same compound, the mass density (338.2 K, x2 = 0.2505) was 1198.7 ± 5.5 kg/m3, the mass density (338.2 K, x2 = 0.2999) was 1198 ± 5.5 kg/m3 and the mass density (338.2 K, x2 = 0.3504) was 1196.1 ± 5.5 kg/m3. It also gave a mass density (338.2 K, x2 = 0.3987) of 1194.3 ± 5.4 kg/m3, a mass density (338.2 K, x2 = 0.4505) of 1192.2 ± 5.4 kg/m3 and a mass density (338.2 K, x2 = 0.4994) of 1189.9 ± 5.4 kg/m3. The mass density (338.2 K, x2 = 0.5495) was 1186.8 ± 5.3 kg/m3, the mass density (338.2 K, x2 = 0.6) was 1183 ± 5.3 kg/m3 and the mass density (338.2 K, x2 = 0.6504) was 1178 ± 5.2 kg/m3. The mass density (338.2 K, x2 = 0.6999) was 1171.8 ± 5.1 kg/m3, the mass density (338.2 K, x2 = 0.7502) was 1163.8 ± 5 kg/m3 and the mass density (338.2 K, x2 = 0.8) was 1153.1 ± 4.8 kg/m3. The mass density (338.2 K, x2 = 0.8499) was 1137.8 ± 4.6 kg/m3 and the mass density (338.2 K, x2 = 0.9) was 1112.4 ± 4.3 kg/m3.
